Literature values as cited in US20060235005A1, “Use of phosphodiesterase 5 (PDE5) inhibitors in the treatment of schizophrenia” (Oak Labs, Corp., priority 2005, published 2006).
Read-outs that look alike come from different tables or passages of the source. Values belong to the compound of their own block, whether it stands above or below them.

How the values were obtained:
[1] = single oral dose of 10, 20 and 40 mg
schizophrenia patients = details: 8-week trial
rats [2] = details: oral 0.3-1.0 mg kg-1, rats
anesthetized dogs = details: intravenous 1-300 μg kg-1, anesthetized dogs
[3] = system: patients with schizophrenia; details: compared with haloperidol
[4] = in vivo
healthy subjects = details: single 20-mg dose
[5] = system: men with erectile dysfunction; details: phase III, including patients with cardiovascular diseases, vs placebo
[6] = system: men with cardiovascular disease
cortical cGMP levels = details: subchronic administration, rats
hyperammonemic rats = details: chronic oral treatment for 28 days
rats [7] = details: 3 mg/kg and 10 mg/kg p.o., at 24 hours
mice [8] = details: 3 mg/kg, at 48 hours
mice [9] = details: 2, 4, & 8 mg/kg
healthy young men = details: 100 mg
[10] = system: middle cerebral artery occlusion; details: 2-5 mg/kg daily for seven days, vs vehicle
rats [11] = system: rats
[12] = system: male schizophrenia patients
[13] = system: women affected by arousal disorders

Tmax [1]: 0.7 to 0.9 h
SMILES: CCCc1nc(C)c2c(=O)[nH]c(-c3cc(S(=O)(=O)N4CCN(CC)CC4)ccc3OCC)nn12 [vardenafil]

SMILES: N[C@@H]1CONC1=O [D-cycloserine]
tolerance for memory effects (animal models; after two weeks of daily dosing): tolerance for memory effects develops | learning and memory (animal models; single dose administration): improves learning and memory | cognitive deficits (schizophrenia patients): failed to improve cognitive deficits

SMILES: CCCOc1ccc(S(=O)(=O)NCCC2CCCN2C)cc1-c1nc2c(CCC)nn(C)c2c(=O)[nH]1 (centres unmarked) [DA-8159]
erectogenic activity (rats [2]): erectogenic activity | intracavernosal pressure (anesthetized dogs): potentiated an increase in intracavernosal pressure in a dose-related manner

SMILES: Cc1nc2n(c(=O)c1CCN1CCC(c3noc4cc(F)ccc34)CC1)CCCC2 [risperidone]
reduction in relapse rate [3]: 43%

maximum Tmax [4]: 2 h
SMILES: CN1CC(=O)N2[C@H](c3ccc4c(c3)OCO4)c3[nH]c4ccccc4c3C[C@@H]2C1=O [tadalafil]
change in heart rate, standing systolic or diastolic blood pressure (healthy subjects): no significant change | incidence of adverse events [5]: no different from that in placebo-treated patients

SMILES: CCCc1nn(C)c2c(=O)[nH]c(-c3cc(S(=O)(=O)N4CCN(C)CC4)ccc3OCC)nc12 [sildenafil]
terminal half-life (in vivo): 3 to 5 h | absolute bioavailability (oral administration): 40% | time to peak plasma concentration (Tmax) (oral, fasting state): 0.5 to 2 h | men with improved erectile function ([6]; men with ischemic heart disease): up to 70% | synergistic effect on blood pressure with antihypertensive agents ([6]; patients not taking organic nitrates, ACE inhibitors, adrenoceptor blockers, calcium channel blockers, diuretics): does not have a synergistic effect on blood pressure | cortical cGMP levels (cortical cGMP levels): increase cortical cGMP levels | cGMP levels in brains (hyperammonemic rats): normalized cGMP levels | performance on learning tasks (hyperammonemic rats): restored performance on learning tasks | retention of object recognition task (rats [7]): significantly improved retention | retention of passive avoidance task (mice [8]): improved retention | acquisition of maze learning (mice [9]): dose-dependently improved acquisition | actual performance (attention / recognition) (healthy young men): did not significantly improve | event-related brain potentials (ERPs) patterns (healthy young men): significantly affected | functional recovery (foot fault test and adhesive removal test) [10]: significantly greater functional recovery | cellular proliferation in the subventricular zone and dentate gyrus ([10]; bromodeoxyuridine labeling): greater cellular proliferation | effect on behavioral effects of dopamine agonists (rats [11]; 10 mg/kg): antagonized behavioral effects | effect on behavioral effects of dopamine agonists (rats [11]; single dose 1 mg/kg): enhanced behavioral effects | safety and efficacy for erectile dysfunction [12]: safe and effective | sexual performance [13]: improve sexual performance
